Results on three molecules are retold here after patent publication US7314939B2, “Compositions and methods for inhibiting TGF-β” (Millennium Pharmaceuticals, Inc., priority 2003, dated 2008).

Molecules are shown by their SMILES.

In assay [1] the target is T1, ALK5 (Homo sapiens, UniProt P36897).
T1 construct: An expression construct containing full-length ALK5 C-terminally tagged with HA was transfected into COS7 cells; made in house; host or cells: COS7 cells (transfected; isolated by anti-HA immunoprecipitation)
T1 sequence (P36897 34-503): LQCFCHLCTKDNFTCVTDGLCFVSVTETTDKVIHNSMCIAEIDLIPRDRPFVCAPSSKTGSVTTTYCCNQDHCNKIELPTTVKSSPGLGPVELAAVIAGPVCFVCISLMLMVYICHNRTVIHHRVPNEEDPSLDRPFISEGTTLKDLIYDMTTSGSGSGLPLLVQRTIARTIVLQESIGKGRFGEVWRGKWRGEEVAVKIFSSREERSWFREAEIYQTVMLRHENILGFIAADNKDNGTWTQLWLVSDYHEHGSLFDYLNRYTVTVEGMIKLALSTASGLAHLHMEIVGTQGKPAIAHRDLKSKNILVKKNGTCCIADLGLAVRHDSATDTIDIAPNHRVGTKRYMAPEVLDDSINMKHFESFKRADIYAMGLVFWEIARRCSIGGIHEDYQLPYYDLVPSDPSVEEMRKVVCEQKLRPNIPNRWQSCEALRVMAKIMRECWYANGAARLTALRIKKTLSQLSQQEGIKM
Put plainly: TGF-β (ALK5) phosphorylation: GST-ALK5 autophosphorylation screen and in vitro kinase of HA-ALK5 (IC50). The class given is biochemical. The source says:
The autophosphorylation of GST-ALK5 was developed for primary screening of the compounds that inhibit TGF-β signaling by interacting with ALK5. HA-ALK5 assay is a secondary screening assay to confirm the inhibitory compounds that were selected from the primary screening, and also for the determination of IC50 for each compound.
Autophosphorylation Assay of GST-ALK5
The cytoplasmic domain of ALK5 was fused to glutathione S-transferase (GST) and the GST-ALK5 fusion protein was expressed in a baculovirus expression system. GST-ALK5 was isolated with glutathione Sepharose 4B beads (Pharmacia Biotech, Sweden) and stored at −80° C. until use.
For detection of GST-ALK5 autophosphorylation and screening of inhibitory compounds, an aliquot of GST-ALK5 in 1× kinase buffer including [^33P]-γ-ATP was added to 96-well plates in the presence or absence of compounds. The mixture was then incubated at room temperature for 30 min and transferred to each well of a Filterplate with vacuum. The Filterplate was then washed 3 times and radioactivity in each well was counted in a Packard TopCount.
In Vitro Kinase of HA-ALK5
An expression construct containing full-length ALK5 C-terminally tagged with HA was transfected into COS7 cells, and HA-ALK5 was isolated by immunoprecipitation with anti-HA antibodies. Aliquots of immunoprecipitated HA-ALK5 in 1× kinase buffer plus [^33P]-γ-ATP was added to 96-well plates in the presence or absence of different concentrations of testing compounds, and incubated at room temperature for 60 min. The reaction mixture was then transferred to a Filterplate. The plate was washed three times and radioactivity in each well counted. IC50 for each compound was determined using the Prism3 program.

Assay [2] concerns TGF-β stimulated normal human lung fibroblasts (NHLF). Put plainly: Cell-based assays in TGF-β stimulated NHLF (P-Smad2, PAI-1, collagen, fibronectin). The following applies: Fibroblast, P-Smad2, PAI-1, collagen and fibronectin assays. The protocol: ELISA Assay for TGF-β Stimulated Smad2 Phosphorylation
Serum-starved normal human lung fibroblasts (NHLF) in 24-well plate were treated with or without different concentrations of testing compounds for 30 min. The cells were then stimulated with TGF-β for one hour. After fixing, permeabilizing, and blocking, the cells were incubated with phospho-Smad2 specific antibodies followed by HRP-conjugated secondary antibody. The extent of Smad2 phosphorylation was then detected using HRP substrate and read with an ELISA plate reader. IC50 for each testing compound was determined using the PRISM3 program.
ELISA Assay for TGF-β Stimulated PAI-1 Secretion
Serum-starved NHLF in 24-well plates were treated with or without different concentrations of testing compounds for 30 min. The cells were then stimulated with TGF-β and incubated in a 37° C. incubator for 24 hours. The media were collected and added to 96-well plates coated with anti-PAI-1 antibodies. The secreted PAI-1 was then detected with another PAI-1 specific antibody followed by HRP-conjugated secondary antibody. The secretion of PAI-1 was detected using HRP substrate and read with an ELISA plate reader. IC50 for each testing compound was determined using the PRISM3 program.
SIRCOL Collagen Assay for TGF-β Stimulated Cells
Serum-starved NHLF in 24-well plates were treated with or without different concentrations of testing compounds for 30 min. The cells were then stimulated with TGF-β and incubated for 24 hours. The media were collected and SIRCOL dye reagent was added. After spinning and washing, the pellets were resuspended in alkali reagent and read with an ELISA plate reader. IC50 for each testing compound was determined using the PRISM3 program.
Detection of TGF-β Stimulated Fibronectin Expression
Serum-starved NHLF in 24-well plates were treated with or without different concentrations of testing compounds for 30 min. The cells were then stimulated with TGF-β and incubated for 24 hours. […] The signal was then detected using an ELISA reader. IC50 for each testing compound was determined using the PRISM3 program. […]

One may read the IC50 as the concentration needed to halve the response being measured. A higher IC50 goes with weaker potency. As for `Fc1c(-c2ccc(Cl)s2)nc2ccccc2c1Nc1ccncc1` [Compound 51, [2-(5-Chloro-thiophen-2-yl)-3-fluoro-quinolin-4-yl]-pyridin-4-yl-amine], the IC50 in assay [1] and in assay [2] was less than 10 µM throughout.

On to `Cc1ccc(-c2nc3ccccc3c(Nc3ccncc3)c2F)o1` [Compound 55, [3-Fluoro-2-(5-methyl-furan-2-yl)-quinolin-4-yl]-pyridin-4-yl-amine], for which the IC50 in assay [1] and in assay [2] was less than 10 µM in each case.

Consider `Fc1c(-c2cccc(Cl)c2)nc2ccccc2c1Nc1ccncc1` [Compound 7, [2-(3-Chloro-phenyl)-3-fluoro-quinolin-4-yl]-pyridin-4-yl-amine], for which the IC50 in assay [1] and in assay [2] was less than 10 µM each time.
